Patent publication US20200061090A1, “AGENT FOR PREVENTING WORSENING OF INSULIN RESISTANCE OR AMELIORATING INSULIN RESISTANCE” (B FOOD SCIENCE CO., LTD., priority 2017, published 2020)

Assays:
[1] = tested on: LETO (Long-Evans Tokushima Otsuka) rats; test: Effect of 1-kestose on LETO control rats of the type 2 diabetes model: plasma insulin and blood glucose; type: in vivo, rat
Protocol: (§1) OLETF (Otsuka Long-Evans Tokushima Fatty) rats (Japan SLC, Inc.), which are model animals with pathological conditions of type 2 diabetes, and LETO (Long-Evans Tokushima Otsuka) rats (Japan SLC, Inc.), which are the controls thereof, were prepared. The LETO rats were divided into 2 groups of 5 rats each to be Group A and Group B. Further, the OLETF rats were divided into 3 groups of 8 rats each to be Group C, Group D, and Group E. During the breeding period, Group A and Group C had discretionary intake of “feed without 1-kestose” described in Example 1 (1), Group B and Group E had discretionary intake of “feed containing 5 mass % of 1-kestose”, and Group D had discretionary intake of “feed containing 1 mass % of 1-kestose”. The rats were bred for 14 days with the same breeding conditions as Example 1 (1)
(§2) For the rats of each Group of this Example 3 (1), plasma insulin levels and blood glucose levels were measured by the method described in Example 1 (2) to calculate an average value and a standard deviation by each Group. Additionally, plasma insulin levels and blood glucose levels are shown in FIG. 6 and FIG. 7 in bar graphs, respectively.

SD rats [2] = test: Effects of 1-kestose on rats taking a high-fat diet (obese model) or ordinary diet: plasma insulin, blood glucose, body weight; type: in vivo, rat; conditions: for Plasma insulin level / Blood glucose level: 135 days; for Plasma insulin level / Blood glucose level / Body weight: average ± SD; for Body weight: end of breeding period (19 weeks)
Protocol: SD rats (Japan SLC, Inc.) were divided into 4 groups of 6 to 8 rats each to be Group A to Group D. During the breeding period, Group A and Group C had discretionary intake of tap water. On the other hand, Group B and Group D were allowed to take 1-kestose by providing discretionary intake of a solution in which 1-kestose was dissolved in purified water in such a way as to be 2 mass %. Additionally, Group A and Group B had discretionary intake of […] (Research Diets, Inc.) as an “ordinary diet”, and Group C and Group D had discretionary intake of D12492 (Research Diets, Inc.) as a “high-fat diet”. The rats were bred for 135 days with the same breeding conditions as Example 1 (1) except feed. The composition of feed is shown below.
(§3) Casein: 200, L-cystine: 3, Cornstarch: 506.2, maltodextrin 10: 125, sucrose: 68.8, cellulose BW200: 50, purified soybean oil: 25, lard: 20, mineral mix S10026: 10, dicalcium phosphate: 13, calcium carbonate: 5.5, potassium citrate monohydrate: 16.5, vitamin mix V10001: 10, choline bitartrate: 2, yellow synthetic dye (FD&C Yellow Dye #1): 0.04, blue synthetic dye (FD&C Blue Dye #1): 0.01.
as §3, with “3,” for “3, Cornstarch: 506.2,”, “245,” for “20,”, “2,” for “2, yellow synthetic dye (FD&C Yellow Dye #1): 0.04,”, “0.05.” for “0.01.”
As the average intake amount of water taken by a rat per day was about 22 mL/rat.
The rats of each Group in this Example 2 (1) were measured for body weight every week during the breeding period, and an average value by each Group was calculated and expressed in line graphs. Note that the body weights (g) of each Group at the start of breeding period were 272±5 for Group A, 268±6 for Group B, 272±3 for Group C, and 269±3 for Group D.
Further, plasma insulin levels and blood glucose levels were measured by the method described in Example 1 (2) to calculate an average value and a standard deviation by each Group. […] Additionally, insulin levels and glucose levels are shown in FIG. 4 and FIG. 5 in bar graphs, respectively.

[3] = tested on: OLETF (Otsuka Long-Evans Tokushima Fatty) rats; test: Effect of 1-kestose on type 2 diabetes model OLETF rats: plasma insulin and blood glucose; type: in vivo, rat; conditions: for Plasma insulin level / Blood glucose level: 14 days, average ± SD; for Plasma insulin level: Group C control 3.36 ± 0.53; for Blood glucose level: Group C control 151 ± 6
Protocol: as §1, §2

[4] = Food processing and ingredients, Vol. 49, No. 12, p. 9, 2014; cited from earlier work
SD rats [5] = test: Effect of 1-kestose on rats taking an ordinary diet (healthy model): serum insulin and blood glucose; type: in vivo, rat; conditions: for Serum insulin level / Blood glucose level: average ± SD; for Serum insulin level: Group A control 4.34 ± 0.51; for Blood glucose level: Group A control 207 ± 11
Protocol: Feed containing 1-kestose in such a way as to be 0, 0.5, 1, 2.5 and 5 mass % was prepared by CLEA Japan, Inc. on commission. The composition of feed is shown below.
Cornstarch: 39.7486, milk casein: 20, pregelatinized cornstarch: 13.2, granulated sugar or granulated sugar and 1-kestose: 10, purified soybean oil: 7, cellulose powder: 5, mineral mix: 3.5, vitamin mix: 1, L-cystine: 0.3, choline bitartrate: 0.25, tertiary butyl hydroquinone: 0.0014.
Forty SD rats (Japan SLC, Inc.) were divided into 5 groups of 8 rats each to be Groups A to E. Group A and Groups B to E had discretionary intake of feed without 1-kestose and 1-kestose-containing feed, respectively, while bred for 30 days. Breeding conditions included a temperature of 23±1° C., a light period of 12 hours (8:00 to 20:00) and a dark period of 12 hours (20:00 to 8:00).
The obtained serum was measured for an insulin level by ELISA technique and a glucose level by glucose oxidase method, to calculate an average value and a standard deviation by each Group. Additionally, serum insulin levels and blood glucose levels are shown in FIG. 1 and FIG. 2 in bar graphs, respectively.

[6] = OLETF rats, Group D, feed containing 1% of 1-kestose (table prints 1.34 g/kg body weight daily)
[7] = OLETF rats, Group E, feed containing 5% of 1-kestose (2.71 g/kg body weight daily)
[8] = Group C, feed containing 1% of 1-kestose (0.54 g/kg body weight daily), 30 days
[9] = Group D, feed containing 2.5% of 1-kestose (1.34 g/kg body weight daily), 30 days
[10] = Group E, feed containing 5% of 1-kestose (2.71 g/kg body weight daily), 30 days

With `OC[C@H]1O[C@@](CO)(OC[C@@]2(O[C@H]3O[C@H](CO)[C@@H](O)[C@H](O)[C@H]3O)O[C@H](CO)[C@@H](O)[C@@H]2O)[C@@H](O)[C@@H]1O` [1-kestose] the “Plasma insulin levels compared with LETO rats not taking 1-kestose” value ([1]; Group B vs Group A) was “lower plasma insulin levels”, the Plasma insulin level ([1]; LETO rats, Group B, feed containing 5% of 1-kestose (2.71 g/kg body weight daily), 14 days, average ± SD, Group A control 1.49 ± 0.19) was 1.08 ± 0.09 ng/mL and the Blood glucose level ([1]; LETO rats, Group B, feed containing 5% of 1-kestose (2.71 g/kg body weight daily), 14 days, average ± SD, Group A control 146 ± 3) was 144 ± 2 mg/dL. The “Blood glucose levels compared among groups” value ([1]; LETO rats, regardless of whether or not 1-kestose was taken) was “equivalent blood glucose levels”, the “Blood glucose levels compared among groups” value (SD rats [2]; Groups A to D, regardless of whether or not 1-kestose was taken) was “equivalent blood glucose levels” and the “Plasma insulin levels of rats taking the high-fat diet and 1-kestose compared with rats taking the ordinary diet” value (SD rats [2]; High-fat diet, Group D vs Groups A and B, Group C notably higher) was “equivalent plasma insulin levels”. It also gave a Plasma insulin level (SD rats [2]; High-fat diet, Group D, 2 mass % 1-kestose solution (0.44 g/rat daily), Group C tap water 6.65 ± 1.03) of 2.28 ± 0.63 ng/mL, a Blood glucose level (SD rats [2]; High-fat diet, Group D, 2 mass % 1-kestose solution (0.44 g/rat daily), Group C tap water 155 ± 4) of 147 ± 2 mg/dL and a Body weight (SD rats [2]; High-fat diet, Group D, 2 mass % 1-kestose solution (0.44 g/rat daily), Group C tap water 764 ± 32) of 718 ± 21 g. For the same compound, the Blood glucose level (SD rats [2]; Ordinary diet, Group B, 2 mass % 1-kestose solution (0.44 g/rat daily), Group A tap water 147 ± 5) was 143 ± 3 mg/dL, the Body weight (SD rats [2]; Ordinary diet, Group B, 2 mass % 1-kestose solution (0.44 g/rat daily), Group A tap water 665 ± 14) was 679 ± 22 g and the Plasma insulin level (SD rats [2]; Ordinary diet, Group B, 2 mass % 1-kestose solution as drinking water (0.44 g/rat daily), Group A tap water 2.48 ± 0.52) was 2.30 ± 0.42 ng/mL. For the same compound, the “Plasma insulin levels compared with OLETF rats not taking 1-kestose” value ([3]; Group C>Group D>Group E) was “lower plasma insulin levels”, the Plasma insulin level [3, 6] was 3.04 ± 0.69 ng/mL and the Blood glucose level [3, 6] was 163 ± 4 mg/dL. The Plasma insulin level [3, 7] was 2.53 ± 0.29 ng/mL, the Blood glucose level [3, 7] was 157 ± 3 mg/dL and the “Blood glucose levels compared among groups” value ([3]; OLETF rats, regardless of whether or not 1-kestose was taken) was “equivalent blood glucose levels”. The “Toxicity in mutagenicity test, acute toxicity test, subchronic toxicity test and chronic toxicity test” value [4] was “not recognized to have toxicity”, the Serum insulin level (SD rats [5]; Group B, feed containing 0.5% of 1-kestose (0.27 g/kg body weight daily), 30 days, n=8) was 3.04 ± 0.38 ng/mL and the Blood glucose level (SD rats [5]; Group B, feed containing 0.5% of 1-kestose (0.27 g/kg body weight daily), 30 days) was 202 ± 10 mg/dL. For the same compound, the Serum insulin level (SD rats [5]; [8]) was 3.08 ± 0.31 ng/mL, the Blood glucose level (SD rats [5]; [8]) was 192 ± 11 mg/dL and the Serum insulin level (SD rats [5]; [9]) was 2.56 ± 0.31 ng/mL. For the same compound, the Blood glucose level (SD rats [5]; [9]) was 202 ± 4 mg/dL, the Serum insulin level (SD rats [5]; [10]) was 2.01 ± 0.24 ng/mL and the Blood glucose level (SD rats [5]; [10]) was 188 ± 7 mg/dL. The “Blood glucose levels compared with rats not taking 1-kestose” value (SD rats [5]; Groups A to E, irrelevant to the intake amount) was “equivalent blood glucose levels” and the “Serum insulin levels compared with Group A (rats not taking 1-kestose)” value (SD rats [5]; Groups B, C, D and E (0.5 to 5% 1-kestose in feed) vs Group A, 30 days) was “significantly lower”.
